The results in this text go back to patent US20220282217A1, “COMPOSITIONS AND METHODS FOR PREPARING T CELL COMPOSITIONS AND USES THEREOF” (priority 2019, published 2022).

Read-outs that look alike come from different tables or passages of the source. Where a SMILES comes first, the peptide text is derived from it.

Test [1] deals with HLA-A01.01 (Homo sapiens, UniProt P04439, A114D/A174V/A182V/D101N/D185E/E176A/E190D/L180R/Q94H/R68K/S129P/T187R/V100A/V91M/W191G). Briefly: Class I MHC peptide binding affinity (displacement of radiolabeled reference peptide). The method in brief: (§1)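 Radiolabeled reference peptide/MHCI complexes; test peptide titration, 2 d incubation; bound label remaining read by size-exclusion gel filtration.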

Test [2] has as its system HLA-A24.02. Briefly: Class I MHC peptide binding stability (pMHC-I dissociation, 125I-labeled light chain). More on the design: species or system human. The note with it: for Stability (T1/2 (h)): allele A24.02.
The target of test [3] is HLA-A02.01 (Homo sapiens, UniProt P04439, D140Y/D185E/D98H/E176V/E277Q/G131W/G231S/I119V/I121R/I166T/I218V/L300P/L318F/N151K/N90K/P208A/P217A/Q86G/Q94H/R138H/R169H/T345S). Briefly: Class I MHC peptide binding affinity (displacement of radiolabeled reference peptide). Conditions: for IC50: allele A02.01, (nM)). The method in brief: as §1
Test [4] has as its target HLA-A24.02. The description is as above. More on the design: species or system human.
Test [5] has as its target HLA-A03.01 (Homo sapiens, UniProt P04439). The test is described as above. Conditions: allele A03.01; read-out: Observed Affinity (IC50; (nM)).
The target in test [6] is T1, HLA-A02.01 (Homo sapiens, UniProt P04439, D140Y/D185E/D98H/E176V/E277Q/G131W/G231S/I119V/I121R/I166T/I218V/N151K/N90K/P208A/P217A/Q86G/Q94H/R138H/R169H).
T1 construct: made in house; host or cells: E. coli
The test can be described thus: Class I MHC peptide binding stability (pMHC-I dissociation, 125I-labeled light chain). The note with it: for Stability (T1/2 (h)): allele A02.01.

In test [7] the target is HLA-B07.02 (Homo sapiens, UniProt P01889). Briefly: Class I MHC peptide binding affinity (displacement of radiolabeled reference peptide). The note with it: EGFR T790M peptides; HLA allele B07.02.
Setting [8] is: allele A01.01, read-out: Observed Affinity (IC50, (nM)).
Where [9] appears, read: read-out: Observed Affinity (IC50.
Where [10] appears, read: allele A24.02, read-out: Observed Affinity (IC50, (nM)).
[11] abbreviates: Observed Affinity (IC50, (nM)), allele A01.01.

Turning to `CC(C)[C@H](NC(=O)[C@H](CCC(=O)O)NC(=O)[C@H](CC(N)=O)NC(=O)[C@H](CO)NC(=O)CN)C(=O)N[C@H](C(=O)N[C@H](C(=O)N[C@@H](CCCNC(=N)N)C(=O)N[C@@H](Cc1ccc(O)cc1)C(=O)O)[C@@H](C)O)[C@@H](C)O` (H-GSNEVTTRY-OH; N-terminus and C-terminus assumed), in test [1] (setting [8]), the IC50 stood at 606 nM.
For the compound `CC(C)C[C@H](NC(=O)[C@H](CC(C)C)NC(=O)[C@H](CC(C)C)NC(=O)[C@H](CC(=O)O)NC(=O)[C@H](CS)NC(=O)[C@H](CC(C)C)NC(=O)[C@@H]1CCCN1C(=O)[C@@H](NC(=O)[C@@H](N)C(C)C)C(C)C)C(=O)O` (H-VVPLCDLLL-OH; N-terminus and C-terminus assumed), the “Stability (T1/2 (h))” value in test [2] came out at 0.4 h. Besides, the IC50 is 1200 nM in test [3] (setting [9]) and 3890 nM in test [4] (setting [10]).
For the compound `CC(C)C[C@H](NC(=O)[C@H](Cc1ccccc1)NC(=O)[C@H](CO)NC(=O)[C@@H](N)CC(C)C)C(=O)N[C@@H](CO)C(=O)N[C@@H](CO)C(=O)N[C@@H](Cc1c[nH]c2ccccc12)C(=O)N[C@@H](CC(=O)O)C(=O)N[C@@H](Cc1ccc(O)cc1)C(=O)O` (H-LSFLSSWDY-OH; N-terminus and C-terminus assumed), in test [1] (setting [8]), the IC50 was found to be 52.9 nM.
In the case of `CC(C)C[C@H](NC(=O)[C@H](Cc1ccccc1)NC(=O)[C@H](CO)NC(=O)[C@H](CC(C)C)NC(=O)[C@@H](N)CS)C(=O)N[C@@H](CO)C(=O)N[C@@H](CO)C(=O)N[C@@H](Cc1c[nH]c2ccccc12)C(=O)N[C@@H](CC(=O)O)C(=O)N[C@@H](Cc1ccc(O)cc1)C(=O)O` (H-CLSFLSSWDY-OH; N-terminus and C-terminus assumed), the IC50 in test [5] came to 2710 nM; in test [1] (setting [8]) it was 987 nM.
Consider `CC[C@H](C)[C@H](NC(=O)[C@H](CCCCN)NC(=O)[C@H](Cc1ccc(O)cc1)NC(=O)[C@@H](NC(=O)[C@@H](NC(=O)[C@H](CC(=O)O)NC(=O)[C@H](CO)NC(=O)[C@@H](N)CCSC)[C@@H](C)O)[C@@H](C)O)C(=O)N[C@@H](Cc1ccc(O)cc1)C(=O)O` (H-MSDTTYKIY-OH; N-terminus and C-terminus assumed), for which, in test [1], the IC50 worked out at 10.2 nM.
For the compound `CC(C)C[C@H](NC(=O)[C@H](CC(C)C)NC(=O)[C@H](CC(C)C)NC(=O)[C@H](CC(=O)O)NC(=O)[C@H](CO)NC(=O)[C@H](CC(C)C)NC(=O)[C@@H]1CCCN1C(=O)[C@@H](NC(=O)[C@@H](N)C(C)C)C(C)C)C(=O)O` (H-VVPLSDLLL-OH; N-terminus and C-terminus assumed), the “Stability (T1/2 (h))” value in test [2] came out at 0.5 h. In addition, the figures for the IC50 in test [3] (setting [9]) and in test [4] (setting [10]) were 2550 nM and 8250 nM, respectively.
As for `CC[C@H](C)[C@H](N)C(=O)N[C@@H](CC(C)C)C(=O)N[C@@H](CC(=O)O)C(=O)N[C@H](C(=O)N[C@@H](C)C(=O)NCC(=O)N[C@@H](Cc1c[nH]cn1)C(=O)N[C@@H](CCC(=O)O)C(=O)N[C@@H](CCC(=O)O)C(=O)N[C@@H](Cc1ccc(O)cc1)C(=O)O)[C@@H](C)O` (H-ILDTAGHEEY-OH; N-terminus and C-terminus assumed), the IC50 in test [1] (setting [11]) was 64.2 nM.
Regarding `CC[C@H](C)[C@H](N)C(=O)N[C@@H](CC(C)C)C(=O)N[C@@H](CC(=O)O)C(=O)N[C@H](C(=O)N[C@@H](C)C(=O)NCC(=O)N[C@@H](CC(C)C)C(=O)N[C@@H](CCC(=O)O)C(=O)N[C@@H](CCC(=O)O)C(=O)N[C@@H](Cc1ccc(O)cc1)C(=O)O)[C@@H](C)O` (H-ILDTAGLEEY-OH; N-terminus and C-terminus assumed), the IC50 in test [1] (setting [11]) was determined as 8.6 nM.
Still for that read-out and setting: in the case of `CC[C@H](C)[C@H](N)C(=O)N[C@@H](CC(C)C)C(=O)N[C@@H](CC(=O)O)C(=O)N[C@H](C(=O)N[C@@H](C)C(=O)NCC(=O)N[C@@H](CCCNC(=N)N)C(=O)N[C@@H](CCC(=O)O)C(=O)N[C@@H](CCC(=O)O)C(=O)N[C@@H](Cc1ccc(O)cc1)C(=O)O)[C@@H](C)O` (H-ILDTAGREEY-OH; N-terminus and C-terminus assumed) it was 7 nM.
Take `C[C@H](NC(=O)[C@H](CC(N)=O)NC(=O)[C@@H](NC(=O)[C@@H](NC(=O)[C@@H](N)Cc1ccc(O)cc1)[C@@H](C)O)[C@@H](C)O)C(=O)N[C@@H](Cc1ccccc1)C(=O)N[C@@H](CO)C(=O)NCC(=O)N[C@@H](CCC(=O)O)C(=O)N[C@@H](Cc1ccc(O)cc1)C(=O)O` (H-YTTNAFSGEY-OH; N-terminus and C-terminus assumed): in test [1] (setting [8]), the IC50 is 10.5 nM.
The same measure, in the same setting: next, `CC(C)[C@H](NC(=O)[C@H](CCC(=O)O)NC(=O)[C@H](CC(N)=O)NC(=O)[C@H](CO)NC(=O)CNC(=O)[C@@H](N)[C@@H](C)O)C(=O)N[C@H](C(=O)N[C@H](C(=O)N[C@@H](CCCNC(=N)N)C(=O)N[C@@H](Cc1ccc(O)cc1)C(=O)O)[C@@H](C)O)[C@@H](C)O` (H-TGSNEVTTRY-OH; N-terminus and C-terminus assumed): 15500 nM.
Regarding `CSCC[C@H](NC(=O)[C@H](CCC(=O)O)NC(=O)[C@H](CC(C)C)NC(=O)[C@H](CC(C)C)NC(=O)[C@H](CC(C)C)NC(=O)CNC(=O)[C@H](Cc1ccc(O)cc1)NC(=O)[C@H](CC(C)C)NC(=O)[C@@H]1CCCN1)C(=O)N[C@@H](CC(C)C)C(=O)O` (H-PLYGLLLEML-OH; N-terminus and C-terminus assumed), the “Stability (T1/2 (h))” value in test [2] was 6.3 h. Also, the IC50 in test [3] (setting [9]) was 797 nM; in test [4] (setting [10]), 444 nM.
With `CSCC[C@H](NC(=O)[C@H](Cc1ccc(O)cc1)NC(=O)[C@@H](N)CCC(=O)O)C(=O)N[C@@H](C)C(=O)N[C@@H](CC(N)=O)C(=O)NCC(=O)N[C@@H](CO)C(=O)N[C@@H](CC(C)C)C(=O)N[C@@H](CC(C)C)C(=O)O` (H-EYMANGSLL-OH; N-terminus and C-terminus assumed), the “Stability (half-life (hr.))” value in test [2] (BTK C481S peptide, HLA Allele A24.02) came to 343 min. Moreover, the IC50 in test [4] (BTK C481S peptide, HLA Allele A24.02, read-out: Affinity) worked out at 4.96 nM; in test [4] (setting [10]), 5 nM.
As to `CC[C@H](C)[C@H](NC(=O)[C@@H]1CCCN1C(=O)[C@H](CC(C)C)NC(=O)[C@H](Cc1ccccc1)NC(=O)[C@H](CC(C)C)NC(=O)[C@H](CO)NC(=O)[C@H](CC(=O)O)NC(=O)[C@@H](NC(=O)[C@H](CC(C)C)NC(=O)[C@@H](N)CCSC)[C@@H](C)O)C(=O)O`, the “Stability (T1/2 (h))” value in test [6] was 1 h. Moreover, the IC50 in test [1] (setting [8]) came to 7670 nM.
With `C[C@H](NC(=O)[C@H](CC(N)=O)NC(=O)[C@@H](NC(=O)[C@@H](N)[C@@H](C)O)[C@@H](C)O)C(=O)N[C@@H](Cc1ccccc1)C(=O)N[C@@H](CO)C(=O)NCC(=O)N[C@@H](CCC(=O)O)C(=O)N[C@@H](Cc1ccc(O)cc1)C(=O)O` (H-TTNAFSGEY-OH; N-terminus and C-terminus assumed), the IC50 in test [1] (setting [8]) was determined as 4.4 nM.
For the compound `CSCC[C@H](NC(=O)[C@H](CC(C)C)NC(=O)[C@H](CCC(N)=O)NC(=O)[C@@H](N)CCSC)C(=O)N1CCC[C@H]1C(=O)N[C@@H](Cc1ccccc1)C(=O)NCC(=O)N[C@@H](CS)C(=O)N[C@@H](CC(C)C)C(=O)O`, in test [6] (EGFR T790M peptides, HLA allele A02.01), the “Stability (half-life (hr.))” value is 22.1 min. Further, in test [6], the “Stability (T1/2 (h))” value came out at 0.4 h. For the same compound, the Kd in test [7] stood at 1590 nM; in test [3] (EGFR T790M peptides, HLA allele A02.01, read-out: Affinity), 116 nM. In test [3] (setting [9]), the IC50 is 166 nM.
Take `CC[C@H](C)[C@H](NC(=O)[C@H](CC(=O)O)NC(=O)[C@H](Cc1ccccc1)NC(=O)[C@H](CC(C)C)NC(=O)[C@@H](NC(=O)[C@H](CCC(=O)O)NC(=O)[C@@H](NC(=O)[C@H](CCSC)NC(=O)[C@@H](N)Cc1c[nH]c2ccccc12)[C@@H](C)O)[C@@H](C)O)C(=O)N[C@H](C(=O)O)C(C)C` (H-WMTETLFDIV-OH; N-terminus and C-terminus assumed): the “Stability (T1/2 (h))” value in test [6] turned out to be 0.4 h. For the same compound, the IC50 in test [1] (setting [8]) was found to be 14400 nM; in test [3] (setting [9]), 40 nM.
Turning to `CC[C@H](C)[C@H](NC(=O)[C@H](CC(C)C)NC(=O)[C@H](CCC(N)=O)NC(=O)[C@@H](NC(=O)[C@@H](NC(=O)[C@H](CO)NC(=O)[C@@H](NC(=O)[C@H](CC(C)C)NC(=O)[C@@H](N)CS)[C@@H](C)O)[C@@H](C)O)C(C)C)C(=O)N[C@@H](CCSC)C(=O)O`, the Kd was 8280 nM in test [1] and 537 nM in test [3]. Also, the IC50 in test [1] (setting [11]) is 11000 nM; in test [3] (Observed Affinity (IC50) it was 716 nM.
In turn, `CC[C@H](C)[C@H](NC(=O)[C@H](CCCCN)NC(=O)[C@H](Cc1ccc(O)cc1)NC(=O)[C@@H](NC(=O)[C@@H](NC(=O)[C@H](CC(=O)O)NC(=O)[C@H](CO)NC(=O)[C@H](CCSC)NC(=O)[C@@H](N)C(C)C)[C@@H](C)O)[C@@H](C)O)C(=O)N[C@@H](Cc1ccc(O)cc1)C(=O)O` (H-VMSDTTYKIY-OH; N-terminus and C-terminus assumed) yielded an IC50 in test [1] of 376 nM.
